One assay addresses GST-MCL-1 (Homo sapiens, UniProt Q07820). Put plainly: TR-FRET MCL-1 binding assay (competition with probe F-Bak). The procedure, abridged:
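Displacement of F-Bak from GST-MCL-1 is detected by time-resolved FRET with a Tb-labelled anti-GST antibody, with excitation 340/35 nm and emission 520/525 and 495/510 nm, after 2 hours at room temperature. Compounds were titrated in 11 three-fold steps starting at 25 μM final, in buffer alone or in 10% HS.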

Assay [1] has as its system AMO-1 human multiple myeloma tumor cell line. As to the kind of experiment: AMO-1 cell viability assay (CellTiter-Glo, 24 hours). The format is cell-based. Conditions: Homo sapiens, AMO1, 24 h, read-out: AMO-1 Viability IC50 (μM, 10% FBS), 10% FBS, 24 hours of compound treatment.
Assay [2] relates to NCI-H929 human multiple myeloma tumor cell line. As to the kind of experiment: NCI-H929 cell viability assay (CellTiter-Glo, 24 hours). It is filed as cell-based. The conditions noted are these: Homo sapiens, NCI-H929, 24 h, read-out: H929 Viability IC50 (μM, 10% FBS), 10% FBS, 24 hours of compound treatment.
Where [3] appears, read: MCL-1 Binding Ki (nM, 10% HS), in the presence of 10% HS (human serum).
The mark [4] stands for this setting: without HS, read-out: MCL-1 Binding Ki.

Like-named read-outs stand apart in the source and are kept apart here.

GST-MCL-1, sequence (Q07820 whole entry): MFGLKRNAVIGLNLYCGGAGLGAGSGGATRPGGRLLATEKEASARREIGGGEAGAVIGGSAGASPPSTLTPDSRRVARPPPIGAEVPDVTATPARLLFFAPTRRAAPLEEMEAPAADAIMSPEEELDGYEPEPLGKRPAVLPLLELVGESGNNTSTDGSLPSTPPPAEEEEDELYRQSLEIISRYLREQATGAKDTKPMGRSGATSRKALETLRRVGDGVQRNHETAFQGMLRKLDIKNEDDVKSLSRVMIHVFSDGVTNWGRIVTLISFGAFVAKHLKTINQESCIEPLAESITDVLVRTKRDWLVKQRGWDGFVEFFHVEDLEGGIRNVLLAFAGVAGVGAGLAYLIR

`COCCOCCOCCOCCOCCOCCOCCC(=O)N1CCC[C@@H]1c1nccc(COc2ccc3cc2C[C@H](C(=O)O)Oc2ncnc4sc(-c5ccc(F)cc5)c(c24)-c2ccc(c(Cl)c2C)O[C@H](CN2CCN(C)CC2)CO3)n1` [Example 43, (7R,16R)-19-chloro-1-(4-fluorophenyl)-20-methyl-16-[(4-methylpiperazin-1-yl)methyl]-10-({2-[(2R)-1-(23-oxo-2,5,8,11,14,17,20-heptaoxatricosan-23-yl)pyrrolidin-2-yl]pyrimidin-4-yl}methoxy)-7,8,15,16-tetrahydro-18,21-etheno-13,9-(metheno)-6,14,17-trioxa-2-thia-3,5-diazacyclononadeca[1,2,3-cd]indene-7-carboxylic Acid]: the figures for the Ki on GST-MCL-1 (setting [3]) and at GST-MCL-1 (setting [4]) were 39.4 nM and 41.1 nM, respectively. The IC50 in assay [1] and in assay [2] was above 1 µM each time.

Regarding `COCCOCCOCCOCCOCCOCCOCCOCCOCCOCCOCCOCCOCC1(c2nccc(COc3ccc4cc3C[C@H](C(=O)O)Oc3ncnc5sc(-c6ccc(F)cc6)c(c35)-c3c(C)c(Cl)c(c(Cl)c3C)O[C@H](CN3CCN(C)CC3)CO4)n2)CCC1` [Example 44, (7R,16R)-19,23-dichloro-1-(4-fluorophenyl)-20,22-dimethyl-16-[(4-methylpiperazin-1-yl)methyl]-10-({2-[1-(2,5,8,11,14,17,20,23,26,29,32,35,38-tridecaoxanonatriacontan-1-yl)cyclobutyl]pyrimidin-4-yl}methoxy)-7,8,15,16-tetrahydro-18,21-etheno-13,9-(metheno)-6,14,17-trioxa-2-thia-3,5-diazacyclononadeca[1,2,3-cd]indene-7-carboxylic Acid], the Ki on GST-MCL-1 (setting [3]) came out at 0.224 nM; at GST-MCL-1 (setting [4]), 0.124 nM. In addition, the IC50 in assay [1] turned out to be 0.0211 µM; in assay [2], 0.0179 µM.

For `COCCOCCOCCOCC1(c2nccc(COc3ccc4cc3C[C@H](C(=O)O)Oc3ncnc5sc(-c6ccc(F)cc6)c(c35)-c3c(C)c(Cl)c(c(Cl)c3C)O[C@H](CN3CCN(C)CC3)CO4)n2)CCC1` [Example 45, (7R,16R)-19,23-dichloro-1-(4-fluorophenyl)-20,22-dimethyl-16-[(4-methylpiperazin-1-yl)methyl]-10-({2-[1-(2,5,8,11-tetraoxadodecan-1-yl)cyclobutyl]pyrimidin-4-yl}methoxy)-7,8,15,16-tetrahydro-18,21-etheno-13,9-(metheno)-6,14,17-trioxa-2-thia-3,5-diazacyclononadeca[1,2,3-cd]indene-7-carboxylic Acid], the figures for the Ki at GST-MCL-1 (setting [3]) and on GST-MCL-1 (setting [4]) were 0.343 nM and 0.094 nM, respectively. Besides, the IC50 in assay [1] came out at 0.000461 µM; in assay [2] it was 0.000598 µM.

With `COCCOCCOCCOc1ccc(-c2nccc(COc3ccc4cc3C[C@H](C(=O)O)Oc3ncnc5sc(-c6ccc(F)cc6)c(c35)-c3c(C)c(Cl)c(c(Cl)c3C)O[C@H](CN3CCN(C)CC3)CO4)n2)cn1` [Example 46, (7R,16R)-19,23-dichloro-1-(4-fluorophenyl)-10-{[2-(6-{2-[2-(2-methoxyethoxy)ethoxy]ethoxy}pyridin-3-yl)pyrimidin-4-yl]methoxy}-20,22-dimethyl-16-[(4-methylpiperazin-1-yl)methyl]-7,8,15,16-tetrahydro-18,21-etheno-13,9-(metheno)-6,14,17-trioxa-2-thia-3,5-diazacyclononadeca[1,2,3-cd]indene-7-carboxylic Acid], the Ki at GST-MCL-1 (setting [3]) turned out to be 1.08 nM; at GST-MCL-1 (setting [4]), 1.02 nM. The results for the IC50 in assay [1] and in assay [2] were 0.00027 µM and 0.000388 µM, respectively.

Turning to `COCCOCCOCCOCCOCCOCCOCCOCCOCCOCCOCCNC(=O)c1ccc(-c2nccc(COc3ccc4cc3C[C@H](C(=O)O)Oc3ncnc5sc(-c6ccc(F)cc6)c(c35)-c3c(C)c(Cl)c(c(Cl)c3C)O[C@H](CN3CCN(C)CC3)CO4)n2)cc1` [Example 47, (7R,16R)-19,23-dichloro-1-(4-fluorophenyl)-20,22-dimethyl-16-[(4-methylpiperazin-1-yl)methyl]-10-[(2-{4-[(2,5,8,11,14,17,20,23,26,29,32-undecaoxatetratriacontan-34-yl)carbamoyl]phenyl}pyrimidin-4-yl)methoxy]-7,8,15,6-tetrahydro-18,21-etheno-13,9-(metheno)-6,14,17-trioxa-2-thia-3,5-diazacyclononadeca[1,2,3-cd]indene-7-carboxylic Acid], the Ki at GST-MCL-1 (setting [3]) was 3.12 nM; on GST-MCL-1 (setting [4]), 0.018 nM. The figures for the IC50 in assay [1] and in assay [2] were 0.0182 µM and 0.0205 µM, respectively.

`Cc1c(Cl)c2c(Cl)c(C)c1-c1c(-c3ccc(F)cc3)sc3ncnc(c13)O[C@@H](C(=O)O)Cc1cc(ccc1OCc1ccnc(N3CC4(C3)CC(F)(F)C4)n1)OC[C@@H](CN1CCN(C)CC1)O2` [Example 48, (7R,16R)-19,23-dichloro-10-{[2-(6,6-difluoro-2-azaspiro[3.3]heptan-2-yl)pyrimidin-4-yl]methoxy}-1-(4-fluorophenyl)-20,22-dimethyl-16-[(4-methylpiperazin-1-yl)methyl]-7,8,15,16-tetrahydro-18,21-etheno-9,13-(metheno)-6,14,17-trioxa-2-thia-3,5-diazacyclononadeca[1,2,3-cd]indene-7-carboxylic Acid]: the Ki on GST-MCL-1 (setting [3]) is 5.32 nM; at GST-MCL-1 (setting [4]) it was 0.644 nM. The IC50 turned out to be 0.00275 µM in assay [1] and 0.00798 µM in assay [2].

In the case of `Cc1c(Cl)c2c(Cl)c(C)c1-c1c(-c3ccc(F)cc3)sc3ncnc(c13)O[C@@H](C(=O)O)Cc1cc(ccc1OCc1ccnc(N3CCC(CC(=O)O)CC3)n1)OC[C@@H](CN1CCN(C)CC1)O2` [Example 49, (7R,16R)-10-({2-[4-(carboxymethyl)piperidin-1-yl]pyrimidin-4-yl}methoxy)-19,23-dichloro-1-(4-fluorophenyl)-20,22-dimethyl-16-[(4-methylpiperazin-1-yl)methyl]-7,8,15,16-tetrahydro-18,21-etheno-13,9-(metheno)-6,14,17-trioxa-2-thia-3,5-diazacyclononadeca[1,2,3-cd]indene-7-carboxylic Acid], the inhibition constant (Ki) on GST-MCL-1 (setting [3]) came out at 0.775 nM; on GST-MCL-1 (setting [4]), 0.039 nM. For the same compound, the IC50 in assay [1] was found to be 0.0222 µM; in assay [2], 0.0431 µM.

In the case of `COCCOCCOCCOCCOCCOCCOCCOCCOCCOCCOCCC(=O)NCc1ccc(-c2nccc(COc3ccc4cc3C[C@H](C(=O)O)Oc3ncnc5sc(-c6ccc(F)cc6)c(c35)-c3c(C)c(Cl)c(c(Cl)c3C)O[C@H](CN3CCN(C)CC3)CO4)n2)cc1` [Example 50, (7R,16R)-19,23-dichloro-1-(4-fluorophenyl)-20,22-dimethyl-16-[(4-methylpiperazin-1-yl)methyl]-10-({2-[4-(35-oxo-2,5,8,11,14,17,20,23,26,29,32-undecaoxa-36-azaheptatriacontan-37-yl)phenyl]pyrimidin-4-yl}methoxy)-7,8,15,16-tetrahydro-18,21-etheno-13,9-(metheno)-6,14,17-trioxa-2-thia-3,5-diazacyclononadeca[1,2,3-cd]indene-7-carboxylic Acid], the Ki came to 0.513 nM on GST-MCL-1 (setting [3]) and 0.199 nM at GST-MCL-1 (setting [4]). The IC50 in assay [1] was 0.0676 µM; in assay [2], 0.103 µM.

The values are drawn from patent US20250313572A1, “MACROCYCLIC MCL-1 INHIBITORS AND METHODS OF USE” (AbbVie Inc., priority 2017, published 2025).
